Assay [1] has as its target T1, STAT6 (Homo sapiens, UniProt P42226).
T1 construct: These cells express endogenous STAT6; host or cells: HeLa LgBiT clone 4.14
T1 sequence (P42226 1-847): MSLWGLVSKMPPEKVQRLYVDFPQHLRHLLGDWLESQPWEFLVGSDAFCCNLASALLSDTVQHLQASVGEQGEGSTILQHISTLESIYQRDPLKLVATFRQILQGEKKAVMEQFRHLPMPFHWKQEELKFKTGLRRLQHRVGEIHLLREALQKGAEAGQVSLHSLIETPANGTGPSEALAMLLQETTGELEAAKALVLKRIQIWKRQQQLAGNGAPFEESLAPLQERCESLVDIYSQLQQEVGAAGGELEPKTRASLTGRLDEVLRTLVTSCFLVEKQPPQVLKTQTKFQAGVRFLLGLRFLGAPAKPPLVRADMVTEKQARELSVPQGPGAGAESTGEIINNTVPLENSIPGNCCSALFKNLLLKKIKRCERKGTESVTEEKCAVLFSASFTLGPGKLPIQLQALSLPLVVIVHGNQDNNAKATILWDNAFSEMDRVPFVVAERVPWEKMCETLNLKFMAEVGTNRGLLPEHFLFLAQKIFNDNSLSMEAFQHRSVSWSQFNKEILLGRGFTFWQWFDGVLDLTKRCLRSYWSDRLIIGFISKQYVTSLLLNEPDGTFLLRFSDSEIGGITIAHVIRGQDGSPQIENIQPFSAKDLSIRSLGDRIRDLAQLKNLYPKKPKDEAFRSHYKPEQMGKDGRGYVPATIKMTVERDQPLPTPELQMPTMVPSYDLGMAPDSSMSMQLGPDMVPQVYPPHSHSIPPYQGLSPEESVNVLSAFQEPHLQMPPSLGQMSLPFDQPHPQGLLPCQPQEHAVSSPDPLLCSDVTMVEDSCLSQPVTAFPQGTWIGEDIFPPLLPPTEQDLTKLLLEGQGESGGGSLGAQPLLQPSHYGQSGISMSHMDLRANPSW
Briefly: Stat6 Degrader Assay (HiBiT based, HeLa LgBiT clone 4.14). It counts as cell-based. As to conditions: HeLa LgBiT clone 4.14 HiBiT-STAT6, 4-24 h incubation; values given for compounds with >80% Emax; geometric mean; read-out: STAT6 degradation DC50. An outline of the steps:
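HeLa LgBiT clone 4.14 cells with CRISPR HiBiT-tagged endogenous STAT6, 5000 cells/well, compound dosed then incubated 4-24 h at 37° C, 5% CO2. Nano-Glo substrate added, 0.5 h, luminescence read as non-degraded STAT6. Terfenadine 50 μM (cell kill) defines 100% degradation.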
(The HiBiT peptide binds its large partner to form an active luciferase.)

In assay [2] the test system is Eotaxin-3 release in human whole blood stimulated with IL-4. Description: Human Whole Blood Eotaxin-3 Assay (IL-4 stimulated eotaxin-3 release). The format is cell-based. Conditions: IL-4 stimulation, 48 h, values given for compounds with >80% Emax, geometric mean. The method in brief:
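Lithium-heparin human whole blood preincubated 2 h at 37° C with 4-fold serially diluted compounds (0.5% DMSO), then stimulated with recombinant human IL-4 ([…]) for 48 h. Eotaxin-3 (CCL26) in supernatant quantified by MSD immunoassay.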

Our source for the DC50 and EC50 values is patent US20250320206A1, “STAT6 DEGRADERS” (Gilead Sciences, Inc., priority 2024, published 2025).

As to `CNc1cc(=O)n(-c2ccnc3c2cc([C@H](C)N2CC=C(c4c(C)cc(C(=O)N(C)c5ccc(N6CCC(O)(Cc7ccc8c(c7)C7(CC7)C(=O)N8C7CCC(=O)NC7=O)CC6)nc5)cc4F)CC2)n3C)cc1F` (stereo partly drawn) [Example 3u240, N-(6-(4-((1′-(2,6-dioxopiperidin-3-yl)-2′-oxospiro[cyclopropane-1,3′-indolin]-5′-yl)methyl)-4-hydroxypiperidin-1-yl)pyridin-3-yl)-3-fluoro-4-(1-((S)-1-(4-(5-fluoro-4-(methylamino)-2-oxopyridin-1 (2H)-yl)-1-methyl-1H-pyrrolo[2,3-b]pyridin-2-yl)ethyl)-1,2,3,6-tetrahydropyridin-4-yl)-N,5-dimethylbenzamide], in assay [1], the DC50 turned out to be 1.1 nM. Also, the concentration for a half-maximal effect (EC50) in assay [2] came to 1.3 nM.
For `CNc1cc(=O)n(-c2ccnc3c2cc([C@H](C)N2CC=C(c4c(C)cc(C(=O)N(C)c5ccc(N6CCC(Cc7ccc8c(c7)n(C)c(=O)n8C7CCC(=O)NC7=O)CC6)nc5)cc4F)CC2)n3C)cc1F` (stereo partly drawn) [Example 3u241, N-(6-(4-((1-(2,6-dioxopiperidin-3-yl)-3-methyl-2-oxo-2,3-dihydro-1H-benzo[d]-imidazol-5-yl)methyl)piperidin-1-yl)pyridin-3-yl)-3-fluoro-4-(1-((S)-1-(4-(5-fluoro-4-(methylamino)-2-oxopyridin-1 (2H)-yl)-1-methyl-1H-pyrrolo[2,3-b]pyridin-2-yl)ethyl)-1,2,3,6-tetrahydropyridin-4-yl)-N,5-dimethylbenzamide] the same measures were 0.1 nM and 0.2 nM.
For `CNc1ccn(-c2ccnc3c2cc(CN2CCC(c4c(F)cc(C(=O)N(C)c5ccc(C6CCN(Cc7ccc8c(c7)n(C)c(=O)n8C7CCC(=O)NC7=O)CC6)cc5)cc4F)CC2)n3C)c(=O)c1` (stereo not shown) [Example 3u244, N-(4-(1-((1-(2,6-dioxopiperidin-3-yl)-3-methyl-2-oxo-2,3-dihydro-1H-benzo[d]imidazol-5-yl)methyl)piperidin-4-yl)phenyl)-3,5-difluoro-N-methyl-4-(1-((1-methyl-4-(4-(methylamino)-2-oxopyridin-1 (2H)-yl)-1H-pyrrolo[2,3-b]pyridin-2-yl)methyl)piperidin-4-yl)benzamide], in that order: 0.1 nM and 0.3 nM.
In the case of `CNc1cc(=O)n(-c2ccnc3c2cc(CN2CCC(c4c(F)cc(C(=O)N(C)c5ccc(C6CCN(Cc7ccc8c(c7)n(C)c(=O)n8C7CCC(=O)NC7=O)CC6)cc5)cc4F)CC2)n3C)cc1F` (stereo not shown) [Example 3u245, N-(4-(1-((1-(2,6-dioxopiperidin-3-yl)-3-methyl-2-oxo-2,3-dihydro-1H-benzo[d]imidazol-5-yl)methyl)piperidin-4-yl)phenyl)-3,5-difluoro-4-(1-((4-(5-fluoro-4-(methylamino)-2-oxopyridin-1 (2H)-yl)-1-methyl-1H-pyrrolo[2,3-b]pyridin-2-yl)methyl)piperidin-4-yl)-N-methylbenzamide], the 50% degradation concentration (DC50) in assay [1] amounted to 0.1 nM. Further, the concentration for a half-maximal effect (EC50) in assay [2] was found to be 0.1 nM.
With `CNc1ccn(-c2ccnc3c2cc(CN2CC=C(c4c(C)cc(C(=O)N(C)c5ccc(C6CCN(Cc7ccc8c(c7)n(C)c(=O)n8C7CCC(=O)NC7=O)CC6)cc5)cc4F)CC2)n3C)c(=O)c1` (stereo not shown) [Example 3u247, N-(4-(1-((1-(2,6-dioxopiperidin-3-yl)-3-methyl-2-oxo-2,3-dihydro-1H-benzo[d]-imidazol-5-yl)methyl)piperidin-4-yl)phenyl)-3-fluoro-N,5-dimethyl-4-(1-((1-methyl-4-(4-(methyl-amino)-2-oxopyridin-1 (2H)-yl)-1H-pyrrolo[2,3-b]pyridin-2-yl)methyl)-1,2,3,6-tetrahydropyridin-4-yl)benzamide], in assay [1], the DC50 was 0.04 nM. The molecule further yielded an EC50 in assay [2] of 0.3 nM.
For `CNc1ccn(-c2ccnc3c2cc(CN2CCC(c4c(C)cc(C(=O)N(C)c5ccc(C6CCN(Cc7ccc8c(c7)n(C)c(=O)n8C7CCC(=O)NC7=O)CC6)cc5)cc4F)CC2)n3C)c(=O)c1` (stereo not shown) [Example 3u248, N-(4-(1-((1-(2,6-dioxopiperidin-3-yl)-3-methyl-2-oxo-2,3-dihydro-1H-benzo[d]imidazol-5-yl)methyl)piperidin-4-yl)phenyl)-3-fluoro-N,5-dimethyl-4-(1-((1-methyl-4-(4-(methylamino)-2-oxopyridin-1 (2H)-yl)-1H-pyrrolo[2,3-b]pyridin-2-yl)methyl)piperidin-4-yl)benzamide], in that order: 0.2 nM and 0.3 nM.
For `CNc1ccn(-c2ccnc3c2cc([C@H](C)N2CCC(c4c(C)cc(C(=O)N(C)c5ccc(C6CCN(Cc7ccc8c(c7)n(C)c(=O)n8C7CCC(=O)NC7=O)CC6)cc5)cc4F)CC2)n3C)c(=O)c1` (stereo partly drawn) [Example 3u249, N-(4-(1-((1-(2,6-dioxopiperidin-3-yl)-3-methyl-2-oxo-2,3-dihydro-1H-benzo[d]-imidazol-5-yl)methyl)piperidin-4-yl)phenyl)-3-fluoro-N,5-dimethyl-4-(1-((S)-1-(1-methyl-4-(4-(methyl-amino)-2-oxopyridin-1 (2H)-yl)-1H-pyrrolo[2,3-b]pyridin-2-yl)ethyl)piperidin-4-yl)benzamide] the same measures were 0.6 nM and 1.4 nM.
For `Cc1cc(C(=O)N(C)c2ccc(C3CCN(Cc4ccc5c(c4)n(C)c(=O)n5C4CCC(=O)NC4=O)CC3)cc2)cc(F)c1C1=CCN([C@@H](C)c2cc3c(-n4ccc5c(c4=O)CCN5)ccnc3n2C)CC1` (stereo partly drawn) [Example 3u250, N-(4-(1-((1-(2,6-dioxopiperidin-3-yl)-3-methyl-2-oxo-2,3-dihydro-1H-benzo[d]imidazol-5-yl)methyl)piperidin-4-yl)phenyl)-3-fluoro-N,5-dimethyl-4-(1-((S)-1-(1-methyl-4-(4-oxo-1,2,3,4-tetrahydro-5H-pyrrolo[3,2-c]pyridin-5-yl)-1H-pyrrolo[2,3-b]pyridin-2-yl)ethyl)-1,2,3,6-tetrahydropyridin-4-yl)benzamide], in that order: 0.1 nM and 0.4 nM.
`CN(C(=O)c1cc(F)c(C2CCN(Cc3cc4c(-n5ccc6c(c5=O)CCN6)ccnc4n3C)CC2)c(F)c1)c1ccc(C2CCN(Cc3ccc4c(c3)n(C)c(=O)n4C3CCC(=O)NC3=O)CC2)cc1` (stereo not shown) [Example 3u251, N-(4-(1-((1-(2,6-dioxopiperidin-3-yl)-3-methyl-2-oxo-2,3-dihydro-1H-benzo[d]-imidazol-5-yl)methyl)piperidin-4-yl)phenyl)-3,5-difluoro-N-methyl-4-(1-((1-methyl-4-(4-oxo-1,2,3,4-tetrahydro-5H-pyrrolo[3,2-c]pyridin-5-yl)-1H-pyrrolo[2,3-b]pyridin-2-yl)methyl)piperidin-4-yl)-benzamide]: the half-maximal degradation concentration (DC50) in assay [1] is 0.2 nM. Besides, a half-maximal effect in assay [2] (EC50) was put at 0.9 nM.
For `CNc1ccn(-c2ccnc3c2cc([C@H](C)N2CC=C(c4c(C)cc(C(=O)N5CCn6nc(CN7CCC(c8ccc9c(c8)n(C8CC8)c(=O)n9C8CCC(=O)NC8=O)CC7)cc6C5)cc4F)CC2)n3C)c(=O)c1` (stereo partly drawn) [Example 3u254, 3-(3-cyclopropyl-5-(1-((5-(3-fluoro-5-methyl-4-(1-((S)-1-(1-methyl-4-(4-(methylamino)-2-oxopyridin-1 (2H)-yl)-1H-pyrrolo[2,3-b]pyridin-2-yl)ethyl)-1,2,3,6-tetrahydropyridin-4-yl)benzoyl)-4,5,6,7-tetrahydropyrazolo[1,5-a]pyrazin-2-yl)methyl)piperidin-4-yl)-2-oxo-2,3-dihydro-1H-benzo[d]imidazol-1-yl)piperidine-2,6-dione] the same measures were 0.4 nM and 0.2 nM.
Consider `CNc1ccn(-c2ccnc3c2cc([C@H](C)N2CC=C(c4c(C)cc(C(=O)N5CCC(CN6CCN(c7cc8c(cc7F)n(C7CCC(=O)NC7=O)c(=O)n8C)CC6)CC5)cc4F)CC2)n3C)c(=O)n1` (stereo partly drawn) [Example 3u256, 3-(6-fluoro-5-(4-((1-(3-fluoro-5-methyl-4-(1-((S)-1-(1-methyl-4-(4-(methylamino)-2-oxopyrimidin-1 (2H)-yl)-1H-pyrrolo[2,3-b]pyridin-2-yl)ethyl)-1,2,3,6-tetrahydropyridin-4-yl)benzoyl)piperidin-4-yl)methyl)piperazin-1-yl)-3-methyl-2-oxo-2,3-dihydro-1H-benzo[d]imidazol-1-yl)piperidine-2,6-dione], for which, in assay [1], the half-maximal degradation concentration (DC50) worked out at 2.5 nM. In assay [2], this molecule had an EC50 of 0.8 nM.

As usually defined, the DC50 is the midpoint of the concentration-degradation curve. As a reminder, the EC50 is the concentration at which the effect is half-maximal. High values mean a need for much substance, low ones an effect from little substance.
